Results on eleven compounds are retold here after patent US6987110B2, “Substituted pyrrolines as kinase inhibitors” (Janssen Pharmaceutica N.V., priority 2002, dated 2006).

Holding throughout (type): biochemical
The target of test [1] is T1, recombinant rabbit GSK-3β (Oryctolagus cuniculus, UniProt G1T8E2).
T1 construct: purchased New England Biolabs
Description: Glycogen Synthase Kinase-3 assay (PPI-2 phosphorylation). Particulars: for IC50: PPI-2 substrate, 33P-ATP, 90 minutes at 30° C. The procedure:
Compounds were tested for the ability to inhibit recombinant rabbit GSK-3β using the following protocol. The test compound was added to a reaction mixture containing Protein phosphatase inhibitor-2 (PPI-2) (Calbiochem) (45 ng), rabbit GSK-3β (New England Biolabs) (0.75 units) and ^33P-ATP (1 μCi) in 50 mM Tris-HCl (pH 8.0), 10 mM MgCl2, 0.1% BSA, 1 mM DTT and 100 μM Sodium Vanadate. The mixture was reacted for 90 minutes at 30° C. to allow phosphorylation of the PPI-2 protein and then the protein in the reaction was precipitated using 10% TCA. The precipitated protein was collected on filter plates (MultiScreen-DV/Millipore), which were subsequently washed. Finally, the radioactivity was quantified using a TopCount Scintillation Counter (Packard). […] Staurosporine or Valproate, known inhibitors of GSK-3β, were used as a positive control for screening.

In another test the target is PKC isoform β-II (Homo sapiens, UniProt P05771). Description: Protein Kinase C histone-based assay, PKC β-II. To be noted: histone III substrate, 30 μM ATP; error approximately within ±30 percent; read-out: PKC Activity, Beta II (IC50, Histone Based Assay). The procedure: (§1) Compounds were evaluated for PKC selectivity using histone III as the substrate. The PKC isoforms α, β-II or γ were added to a reaction mixture that contained 20 mM HEPES, (pH 7.4), 940 μM CaCl2, 10 mM MgCl2, 1 mM EGTA. 100 μg/mL phosphatidylserine, 20 μg/mL diacylglycerol, 30 μM ATP, 1 μCi (^33P)ATP and 200 μg/mL histone III. The reaction was incubated for 10 min at 30° C. Reactions were terminated by TCA precipitation and spotting on Whatman P81 filters. Filters were washed in 75 mM phosphoric acid and the radioactivity quantified by liquid scintillation counting.
Sequence of PKC isoform β-II (P05771 1-673 isoform P05771-2): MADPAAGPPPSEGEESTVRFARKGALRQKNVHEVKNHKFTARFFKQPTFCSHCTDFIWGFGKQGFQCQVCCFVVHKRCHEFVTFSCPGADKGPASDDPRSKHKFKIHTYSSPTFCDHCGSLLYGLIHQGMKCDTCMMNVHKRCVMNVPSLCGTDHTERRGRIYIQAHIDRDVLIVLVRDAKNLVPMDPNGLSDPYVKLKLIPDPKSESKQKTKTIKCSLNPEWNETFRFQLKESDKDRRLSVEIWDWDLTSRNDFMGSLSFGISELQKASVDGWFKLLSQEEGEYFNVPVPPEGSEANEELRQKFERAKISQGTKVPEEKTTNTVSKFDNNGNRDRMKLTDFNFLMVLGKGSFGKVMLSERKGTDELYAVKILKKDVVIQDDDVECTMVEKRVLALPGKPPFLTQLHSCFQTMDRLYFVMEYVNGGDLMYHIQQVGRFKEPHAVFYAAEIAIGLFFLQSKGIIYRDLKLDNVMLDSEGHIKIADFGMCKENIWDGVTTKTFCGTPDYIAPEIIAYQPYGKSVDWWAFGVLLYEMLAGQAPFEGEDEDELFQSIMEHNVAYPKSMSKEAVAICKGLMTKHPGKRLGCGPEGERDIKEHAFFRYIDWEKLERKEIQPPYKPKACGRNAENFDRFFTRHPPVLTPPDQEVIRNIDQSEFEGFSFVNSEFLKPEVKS

A further test addresses PKC isoform α (Homo sapiens, UniProt P17252). Description: Protein Kinase C histone-based assay, PKC α. To be noted: histone III substrate, 30 μM ATP; error approximately within ±30 percent; read-out: PKC Activity, Alpha (IC50, Histone Based Assay). The procedure: as §1
For the next test, the target named is PKC isoform γ (Homo sapiens, UniProt P05129). Description: Protein Kinase C histone-based assay, PKC γ. Particulars: histone III substrate, 30 μM ATP; error approximately within ±30 percent; read-out: PKC Activity, Gamma (IC50, Histone Based Assay). The procedure:
as §1

T1 sequence (G1T8E2 1-432): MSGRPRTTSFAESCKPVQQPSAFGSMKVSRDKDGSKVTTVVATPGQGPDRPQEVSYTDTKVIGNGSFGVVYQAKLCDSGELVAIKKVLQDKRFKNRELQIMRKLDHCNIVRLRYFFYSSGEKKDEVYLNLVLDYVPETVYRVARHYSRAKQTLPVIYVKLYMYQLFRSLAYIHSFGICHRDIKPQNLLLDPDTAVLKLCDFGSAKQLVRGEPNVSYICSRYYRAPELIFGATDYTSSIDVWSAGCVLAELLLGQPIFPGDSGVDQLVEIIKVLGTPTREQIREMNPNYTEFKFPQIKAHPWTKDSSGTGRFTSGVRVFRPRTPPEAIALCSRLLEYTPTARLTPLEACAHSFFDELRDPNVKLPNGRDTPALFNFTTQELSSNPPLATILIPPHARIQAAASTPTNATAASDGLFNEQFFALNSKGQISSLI

Broadly, the IC50 is the point on the concentration scale where inhibition reaches its midpoint. `Cn1cc(C2=C(c3cn(-c4cncnc4)c4ccccc34)C(=O)NC2=O)c2ccccc21` [Compound 7, 3-(1-methyl-1H-indol-3-yl)-4-[1-(5-pyrimidinyl)-1H-indol-3-yl]-1H-pyrrole-2,5-dione]: in test [1], the IC50 came out at 0.03 µM.

For the compound `Cn1cc(C2=C(c3cn(-c4cccnc4)c4ccccc34)C(=O)NC2=O)c2ccccc21` [Compound 8, 3-(1-methyl-1H-indol-3-yl)-4-[1-(3-pyridinyl)-1H-indol-3-yl]-1H-pyrrole-2,5-dione], the half-maximal inhibitory concentration (IC50) in test [1] was found to be 0.1 µM.

Take `CN(C)CCCn1cc(C2=C(c3cn(-c4csc5ccccc45)c4ccccc34)C(=O)NC2=O)c2ccccc21` [Compound 5, 3-(1-benzo[b]thien-3-yl-1H-indol-3-yl)-4-[1-[3-(dimethylamino)propyl]-1H-indol-3-yl]-1H-pyrrole-2,5-dione]: the “GSK-3β Assay Activity, percent at a single concentration” value in test [1] (@ 1 μM) came out at 53% @ 1 μM.

With `O=C1NC(=O)C(c2cn(-c3cccnc3)c3ccccc23)=C1c1cn(CCn2ncnn2)c2ccccc12` [Compound 9, 3-[1-(3-pyridinyl)-1H-indol-3-yl]-4-[1-[2-(2H-tetrazol-2-yl)ethyl]-1H-indol-3-yl]-1H-pyrrole-2,5-dione], the IC50 on PKC isoform β-II came out at 0.054 µM; at PKC isoform α it was 0.91 µM; on PKC isoform γ, 4.95 µM; in test [1], 0.007 µM.

Regarding `O=C1NC(=O)C(c2cn(-c3cnc4ccccc4c3)c3ccccc23)=C1c1cn(CCO)c2ccccc12` [Compound 3, 3-[1-(2-hydroxyethyl)-1H-indol-3-yl]-4-[1-(3-quinolinyl)-1H-indol-3-yl]-1H-pyrrole-2,5-dione], the IC50 was found to be 0.023 µM on PKC isoform β-II, 0.457 µM on PKC isoform α, 0.784 µM on PKC isoform γ and 0.031 µM in test [1].

Turning to `O=C1NC(=O)C(c2cn(-c3cncnc3)c3ccccc23)=C1c1cn(CCO)c2ccccc12` [Compound 2, 3-[1-(2-hydroxyethyl)-1H-indol-3-yl]-4-[1-(5-pyrimidinyl)-1H-indol-3-yl]-1H-pyrrole-2,5-dione], the IC50 on PKC isoform β-II amounted to 0.015 µM; at PKC isoform α, 0.228 µM; at PKC isoform γ, 0.429 µM; in test [1] it was 0.008 µM.

On to `O=C1NC(=O)C(c2cn(-c3cncnc3)c3ccccc23)=C1c1cn(-c2cccnc2)c2ccccc12` [Compound 11, 3-[1-(3-pyridinyl)-1H-indol-3-yl]-4-[1-(5-pyrimidinyl)-1H-indol-3-yl]-1H-pyrrole-2,5-dione], for which the IC50 is 0.06 µM on PKC isoform β-II, 3.04 µM at PKC isoform α, 1.44 µM on PKC isoform γ and 0.116 µM in test [1].

Consider `O=C1NC(=O)C(c2cn(-c3cccnc3)c3ccccc23)=C1c1cn(CCCO)c2ccccc12` [Compound 4, 3-[1-(3-hydroxypropyl)-1H-indol-3-yl]-4-[1-(3-pyridinyl)-1H-indol-3-yl]-1H-pyrrole-2,5-dione], for which, in test [1], the IC50 amounted to 0.024 µM.

For the compound `O=C1NC(=O)C(c2cn(-c3cccnc3)c3ccccc23)=C1c1cn(CCn2cnnn2)c2ccccc12` [Compound 10, 3-[1-(3-pyridinyl)-1H-indol-3-yl]-4-[1-[2-(1H-tetrazol-1-yl)ethyl]-1H-indol-3-yl]-1H-pyrrole-2,5-dione], the IC50 was 0.123 µM at PKC isoform β-II, 1.01 µM at PKC isoform α, 4.57 µM on PKC isoform γ and 0.017 µM in test [1].

On to `O=C1NC(=O)C(c2cn(-c3cccnc3)c3ccccc23)=C1c1cn(CCO)c2ccccc12` [Compound 1, 3-[1-(2-hydroxyethyl)-1H-indol-3-yl]-4-[1-(3-pyridinyl)-1H-indol-3-yl]-1H-pyrrole-2,5-dione], for which the IC50 on PKC isoform β-II turned out to be 0.006 µM; on PKC isoform α it was 0.064 µM; on PKC isoform γ, 0.274 µM; in test [1], 0.025 µM.

Take `CN(C)CCCn1cc(C2=C(c3cn(-c4ccccc4)c4ccccc34)C(=O)NC2=O)c2ccccc21` [Compound 6, 3-[1-[3-(dimethylamino)propyl]-1H-indol-3-yl]-4-(1-phenyl-1H-indol-3-yl)-1H-pyrrole-2,5-dione]: the IC50 at PKC isoform β-II is 0.023 µM; at PKC isoform α, 0.058 µM.
